Reference: US7906522B2, “2-aminoquinazoline derivatives” (Kyowa Hakko Kirin Co., Ltd, priority 2005, dated 2011)

The compounds below were run against T1, Activated human p38α (Homo sapiens, UniProt Q16539) (assay: p38MAP kinase inhibition test). Conditions: at a concentration of 1 μmol/L; substrate myelin basic protein, ATP 20 μmol/L, [γ-32P]ATP; read-out: enzyme inhibitory activity.
T1 construct: purchased Upstate Biotechnology Inc. 14-251
Format: biochemical
Summary of the method: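 Phosphorylation of myelin basic protein (20 μg/assay) by the kinase measured via [γ-32P]ATP incorporation at 20 μmol/L ATP, pH 7.2 MOPS buffer, 30° C. for 15 min. Labelled substrate bound to P81 paper, washed, and quantified by scintillation counting; compounds added in DMSO.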

T1 sequence (Q16539 whole entry): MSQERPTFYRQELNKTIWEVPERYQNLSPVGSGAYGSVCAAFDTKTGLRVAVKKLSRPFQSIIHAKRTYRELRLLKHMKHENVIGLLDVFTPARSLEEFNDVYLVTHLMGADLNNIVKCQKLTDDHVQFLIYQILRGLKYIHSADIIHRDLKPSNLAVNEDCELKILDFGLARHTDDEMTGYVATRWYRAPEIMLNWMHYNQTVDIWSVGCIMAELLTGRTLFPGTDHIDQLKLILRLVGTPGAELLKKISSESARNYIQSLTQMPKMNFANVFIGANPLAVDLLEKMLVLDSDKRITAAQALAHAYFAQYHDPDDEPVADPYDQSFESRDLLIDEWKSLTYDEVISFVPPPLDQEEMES

Inhibition at 1 µM, ≥ 50%:
CC(C)Nc1ncc2cc(-c3ccccc3Cl)c(O)c(-c3cccc(C(=O)O)c3)c2n1 [Compound 94, 8-(3-Carboxyphenyl)-6-(2-chlorophenyl)-7-hydroxy-2-(isopropylamino)quinazoline]
CC(C)Nc1ncc2cc(-c3cc(NC(=O)c4ccnc(N5CCOCC5)c4)ccc3O)ccc2n1 [Compound 266, 6-{2-Hydroxy-5-[(2-morpholinopyridin-4-yl)carbonylamino]phenyl]-2-(isopropylamino)quinazoline]
CC[C@H](C)Nc1ncc2cc(-c3ccccc3Cl)c(OC)cc2n1 [Compound 155, (S)-2-(sec-Butylamino)-6-(2-chlorophenyl)-7-methoxyquinazoline]
COc1cc2nc(NC(C)C)ncc2cc1-c1cccc(NC(=O)c2ccc[nH]2)c1 [Compound 209, 2-Isopropylamino-7-methoxy-6-{3-[(1H-pyrrol-2-yl)carbonylamino]phenyl}quinazoline]
CC(C)Nc1ncc2cc(-c3ccccc3Cl)c(OCc3ccc(C(=O)O)cc3)cc2n1 [Compound 28, 7-(4-Carboxyphenylmethyloxy)-6-(2-chlorophenyl)-2-isopropylaminoquinazoline]
COc1cc2nc(NC(C)C)ncc2cc1-c1cc(NC(=O)c2ccc[nH]2)ccc1CO [Compound 228, 6-{2-Hydroxymethyl-5-[(1H-pyrrol-2-yl)carbonylamino]phenyl}-2-isopropylamino-7-methoxyquinazoline]
COc1cc2nc(NC(C)C)ncc2cc1-c1cccc(OC)c1F [Compound 207, 6-(2-Fluoro-3-methoxyphenyl)-2-isopropylamino-7-methoxyquinazoline]
CC(C)Nc1ncc2cc(-c3ccccc3Cl)c(OCC(C)(C)O)c(C(C)(C)O)c2n1 [Compound 81, 6-(2-Chlorophenyl)-8-(1-hydroxy-1-methylethyl)-7-(2-hydroxy-2-methylpropyloxy)-2-(isopropylamino)quinazoline]
COc1cc2nc(NCC3CCN(S(C)(=O)=O)CC3)ncc2cc1-c1ccccc1Cl [Compound 144, 6-(2-Chlorophenyl)-7-methoxy-2-[1-(methylsulfonyl)piperidin-4-ylmethylamino]quinazoline]
COc1cc2nc(NC(C)C)ncc2cc1-c1cccc(NC(=O)c2ccccc2C(F)(F)F)c1 [Compound 217, 2-Isopropylamino-7-methoxy-6-{3-[(2-trifluoromethylphenyl)carbonylamino]phenyl}quinazoline]
COc1cc2nc(N[C@H](C)c3ccccc3)ncc2cc1-c1ccccc1Cl [Compound 8, (R)-6-(2-Chlorophenyl)-7-methoxy-2-[(1-phenylethyl)amino]quinazoline]
CC(C)Nc1ncc2cc(-c3cccc(NC(=O)c4ccnc(N5CCOCC5)c4)c3)ccc2n1 [Compound 257, 2-Isopropylamino-6-{3-[(2-morpholinopyridin-4-yl)carbonylamino]phenyl}quinazoline]
COCOc1c(-c2ccccc2Cl)cc2cnc(NC(C)C)nc2c1-c1ccc(C(=O)O)cc1 [Compound 91, 8-(4-Carboxyphenyl)-6-(2-chlorophenyl)-2-isopropylamino-7-(methoxymethyloxy)quinazoline]
CC(C)Nc1ncc2cc(-c3ccccc3Cl)c(OCC(=O)N3CCOCC3)cc2n1 [Compound 39, 6-(2-Chlorophenyl)-2-isopropylamino-7-[(morpholinocarbonyl)methyloxy]quinazoline]
COc1cc2nc(NC(C)C)ncc2cc1-c1cccc(C)c1 [Compound 203, 2-Isopropylamino-7-methoxy-6-(3-methylphenyl)quinazoline]
COc1cc2nc(NC(C)C)ncc2cc1-c1ccccc1NC(C)=O [Compound 56, 6-[2-(Acetylamino)phenyl]-2-isopropylamino-7-methoxyquinazoline]
COc1cc2nc(NC(C)C)ncc2cc1-c1cccc(NC(=O)c2cccc(C(F)(F)F)c2)c1 [Compound 216, 2-Isopropylamino-7-methoxy-6-{3-[(3-trifluoromethylphenyl)carbonylamino]phenyl}quinazoline]
COc1cc2nc(NC(C)C)ncc2cc1C(=O)c1ccccc1C [Compound 113, 2-Isopropylamino-7-methoxy-6-(2-methylbenzoyl)quinazoline]
COc1cc2nc(NC3CCN(S(C)(=O)=O)CC3)ncc2cc1-c1ccccc1C=O [Compound 237, 6-(2-Formylphenyl)-7-methoxy-2-[1-(methylsulfonyl)piperidin-4-ylamino]quinazoline]
CNc1ncc2cc(-c3cc(NC(C)=O)ccc3C)c(OC)cc2n1 [Compound 250, 6-(5-Acetylamino-2-methylphenyl)-7-methoxy-2-(methylamino)quinazoline]
CC(C)Nc1ncc2cc(C(=O)c3ccc(F)c(Cl)c3)c(O)cc2n1 [Compound 127, 6-(3-Chloro-4-fluorobenzoyl)-7-hydroxy-2-(isopropylamino)quinazoline]
CC(=O)Nc1ccc(C)c(-c2ccc3nc(NC(C)C)ncc3c2)c1 [Compound 254, 6-(5-Acetylamino-2-methylphenyl)-2-(isopropylamino)quinazoline]
Cc1cccc(C(=O)c2cc3cnc(NC(C)C)nc3cc2O)c1 [Compound 118, 7-Hydroxy-2-isopropylamino-6-(3-methylbenzoyl)quinazoline]
COc1cccc(-c2cc3cnc(NC(C)C)nc3cc2OC)c1 [Compound 201, 2-Isopropylamino-7-methoxy-6-(3-methoxyphenyl)quinazoline]
CC(C)Nc1ncc2cc(C(=O)c3ccc(F)c(F)c3)c(O)cc2n1 [Compound 129, 6-(3,4-Difluorobenzoyl)-7-hydroxy-2-(isopropylamino)quinazoline]
CC(C)Nc1ncc2cc(-c3ccc(F)cc3F)c(O)c(-c3ccc(F)cc3)c2n1 [Compound 84, 6-(2,4-Difluorophenyl)-8-(4-fluorophenyl)-2-isopropylamino-7-hydroxyquinazoline]
CC(C)Nc1ncc2cc(-c3ccccc3Cl)c(OCCO)cc2n1 [Compound 23, 6-(2-Chlorophenyl)-7-(2-hydroxyethyloxy)-2-isopropylaminoquinazoline]
COc1c(-c2ccccc2Cl)cc2cnc(NC(C)C)nc2c1-c1ccccn1 [Compound 86, 6-(2-Chlorophenyl)-2-isopropylamino-7-methoxy-8-(2-pyridyl)quinazoline]
CCOC(=O)N1CCC(Nc2ncc3cc(C(=O)c4ccccc4)c(O)cc3n2)CC1 [Compound 137, 6-Benzoyl-2-[1-(ethoxycarbonyl)piperidin-4-ylamino]-7-hydroxyquinazoline]
